From patent US9567322B2, “Substituted tetrahydropyrans and method of use” (AbbVie S.á.r.l., priority 2014, dated 2017)

Experiments:
F508del/F508del CFTR = biological target: T1, F508del/F508del CFTR (Homo sapiens, UniProt P13569, DEL508-508); assay: Transepithelial Clamp Circuit (TECC-24) conductance assay on primary human bronchial epithelial cells; format: cell-based; conditions: primary hBE cells from F508del/F508delCFTR patients; for EC50: equivalent short circuit current (Ieq), correctors 18-24 hours at 37° C., with control potentiator, 6 test concentrations; for Maximum % activity: relative to positive control (3 μM) coupled with control potentiator = 100%
T1 construct: cells isolated from CF patients with the homozygous mutation; endogenous in cells; host or cells: primary human bronchial epithelial (hBE) cells from F508del/F508del CF patients
Text: Transepithelial Clamp Circuit on Human Bronchial Epithelial Cells Conductance Assay:
A cell based assay using the primary human bronchial epithelial cells (hBE) was used as a secondary assay to test novel F508delCFTR correctors for their activity on primary hBE cells with F508del/F508del CFTR mutation. The assay used a TECC-24 (Transepithelial Clamp Circuit for 24 wells) instrument that measures the functionality of the mutated channel by measuring the equivalent short circuit current (Ieq) generated by the polarized epithelial cells. The instrument works by measuring the transepithelial potential difference (Vt) and transepithelial resistance (Rt) in an open circuit format, and the Ieq is calculated by using Ohms law (Ieq=Vt/Rt). The assay was run in a 24-well format and all 24-wells were measured at the same time point giving a higher throughput for this assay.
Primary human bronchial epithelial (hBE) cells from F508del/F508delCFTR patients were expanded from 1×10^6 to 250×10^6 cells (Neuberger T, Burton B, Clark H and VanGoor F; Cystic Fibrosis, Methods in Mole Biol 741; eds. Amaral M D and Kunzelmann K, 2011). For this purpose, cells isolated from CF patients with the homozygous mutation were seeded onto 24 well Corning (Cat #3378) filter plates that were coated with 3T3 conditioned media and grown at an air-liquid interface for 35 days using an Ultroser® G supplemented differentiation media. Apical surface mucus was removed 72 hours before the experiment using 3 mM dithiothreitol (DTT) in phosphate buffered saline (PBS). The apical surface was washed again 24 hours before the experiment using PBS. The cells were incubated with the desired dose response of the corrector compounds 18-24 hours at 37° C., 5% CO2. The corrector compounds are only added on the basolateral side of the epithelial cells.
On the day of measuring the corrector activity on the TECC, the cells were switched into a bicarbonate and serum free F-12 Coon's medium and allowed to equilibrate for 90 minutes in a CO2 free incubator. At the time of measurement, the apical and basolateral sides of the filter were bathed with the F-12 Coon's modification media (with 20 mM 4-(2-hydroxyethyl)-1-piperazineethanesulfonic acid (HEPES), pH 7.4 (using 1 M tris(hydroxymethyl)aminomethane (Tris)), and the measurements were made at 36.5° C. Transepithelial voltage (Vt) and transepithelial resistance (Rt) were measured using a 24 channel transepithelial current clamp (TECC-24). Current responses to the sequential addition of benzamil (apical 6 M addition; for inhibiting epithelial ENaC channel), forskolin (apical and basolateral 10 M addition; for activating the CFTR channel), control potentiator (N-(3-carbamoyl-5,5,7,7-tetramethyl-4,7-dihydro-5H-thieno[2,3-c]pyran-2-yl)-1H-pyrazole-5-carboxamide; apical and basolateral 1 M addition; for potentiating the CFTR channel) and bumetanide (basolateral 20 μM addition; for inhibiting the Na:2Cl:K co-transporter, an indirect measure of inhibiting the Cl-secretion driven by CFTR channel) were measured.
All plates contained negative controls (dimethyl sulfoxide, DMSO) which coupled with the control potentiator (N-(3-carbamoyl-5,5,7,7-tetramethyl-4,7-dihydro-5H-thieno[2,3-c]pyran-2-yl)-1H-pyrazole-5-carboxamide) sets the null response and positive controls (3 μM of 3-[(2R,4R)-4-({[1-(2,2-difluoro-1,3-benzodioxol-5-yl)cyclopropyl]carbonyl}amino)-7-methoxy-3,4-dihydro-2H-chromen-2-yl]benzoic acid) coupled with the control potentiator sets the 100% response to measure the correction of the mutated CFTR channel. The maximum percent activity is reported relative to the positive control value.
The % activity measured at each of the 6 test concentrations of the test compound was normalized to the on-plate positive control using the following formula: % activity=[(test compound response−DMSO response)/(positive control response−DMSO response)]*100 […]

F508delCFTR = biological target: T2, F508delCFTR (Homo sapiens, UniProt P13569, DEL508-508); assay: Cell Surface Expression-Horse Radish Peroxidase (CSE-HRP) assay; format: cell-based; conditions: CFBE41o-F508delCFTR-HRP cells; for EC50: cell surface expression, luminescence readout, 18-24 hours at 33° C., highest concentration tested 20 μM, 8-point curve; for Maximum % activity: maximum at any tested concentration, normalized to on-plate positive control (3 μM) and DMSO
T2 construct: expressed in transfected cells; host or cells: CFBE41o- (CFBE41o-F508delCFTR-HRP), doxycycline-inducible
Summary of the method: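 CFBE41o- cells expressing F508delCFTR with HRP in the fourth extracellular loop were doxycycline-induced (0.5 μg/mL) for 72 h at 37 °C, then treated 18-24 h at 33 °C with an 8-point 3-fold series from 20 μM. Surface HRP luminescence (luminol) was normalized to DMSO and positive control; EC50 came from variable-slope sigmoidal fits of triplicate plates.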

T2 sequence (P13569 with tags, fused parts or gaps DEL508-508): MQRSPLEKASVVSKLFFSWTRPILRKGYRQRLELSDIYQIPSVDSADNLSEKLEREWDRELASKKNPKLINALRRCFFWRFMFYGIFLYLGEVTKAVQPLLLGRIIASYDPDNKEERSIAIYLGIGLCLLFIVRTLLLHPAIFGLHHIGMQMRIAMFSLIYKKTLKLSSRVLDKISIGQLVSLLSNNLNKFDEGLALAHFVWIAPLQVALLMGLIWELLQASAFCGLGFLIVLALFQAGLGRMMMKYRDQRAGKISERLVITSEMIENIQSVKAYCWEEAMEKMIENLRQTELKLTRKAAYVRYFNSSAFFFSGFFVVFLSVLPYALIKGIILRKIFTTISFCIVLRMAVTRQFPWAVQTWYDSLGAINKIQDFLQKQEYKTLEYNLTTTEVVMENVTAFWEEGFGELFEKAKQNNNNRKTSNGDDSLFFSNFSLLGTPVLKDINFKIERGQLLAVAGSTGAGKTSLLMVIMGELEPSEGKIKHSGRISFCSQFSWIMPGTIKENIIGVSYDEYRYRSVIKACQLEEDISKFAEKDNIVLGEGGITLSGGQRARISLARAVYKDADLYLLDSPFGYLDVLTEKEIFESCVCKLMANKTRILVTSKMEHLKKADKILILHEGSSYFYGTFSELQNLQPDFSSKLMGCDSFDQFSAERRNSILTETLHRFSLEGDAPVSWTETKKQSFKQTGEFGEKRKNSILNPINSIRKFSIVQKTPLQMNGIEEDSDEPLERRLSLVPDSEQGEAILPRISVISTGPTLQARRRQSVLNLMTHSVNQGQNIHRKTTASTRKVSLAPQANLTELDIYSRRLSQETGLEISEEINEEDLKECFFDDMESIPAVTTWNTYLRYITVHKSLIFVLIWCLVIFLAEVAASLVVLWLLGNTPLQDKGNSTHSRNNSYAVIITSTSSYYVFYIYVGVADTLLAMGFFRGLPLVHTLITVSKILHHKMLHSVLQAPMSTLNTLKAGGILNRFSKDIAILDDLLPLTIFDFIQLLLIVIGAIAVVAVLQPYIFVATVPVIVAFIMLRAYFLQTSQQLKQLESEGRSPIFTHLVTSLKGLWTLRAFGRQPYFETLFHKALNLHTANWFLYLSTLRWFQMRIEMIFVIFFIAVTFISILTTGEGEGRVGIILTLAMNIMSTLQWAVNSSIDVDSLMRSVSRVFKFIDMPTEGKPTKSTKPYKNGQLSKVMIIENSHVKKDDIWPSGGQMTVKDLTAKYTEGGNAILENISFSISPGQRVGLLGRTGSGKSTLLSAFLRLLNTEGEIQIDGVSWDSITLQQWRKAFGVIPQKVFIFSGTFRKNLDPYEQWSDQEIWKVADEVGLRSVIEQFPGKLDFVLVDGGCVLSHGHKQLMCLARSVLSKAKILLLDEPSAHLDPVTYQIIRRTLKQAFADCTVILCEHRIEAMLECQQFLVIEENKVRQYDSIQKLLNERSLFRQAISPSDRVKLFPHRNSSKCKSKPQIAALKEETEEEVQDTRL
T1 sequence (P13569 with tags, fused parts or gaps DEL508-508): as above

EC50 (F508del/F508del CFTR) [nM]	Maximum % activity (F508del/F508del CFTR) [%]	EC50 (F508delCFTR) [nM]	Maximum % activity (F508delCFTR) [%]	Maximum % activity (F508delCFTR; 3 µM) [%]	Compound
140	83	270	97		O=C(O)c1ccc([C@H]2C[C@@H](NC(=O)C3(c4ccc5c(c4)OC(F)(F)O5)CC3)C[C@@H](c3ccccc3)O2)c(F)c1 (racemic) [Example 60, rac-4-[(2R,4S,6S)-4-({[1-(2,2-difluoro-1,3-benzodioxol-5-yl)cyclopropyl]carbonyl}amino)-6-phenyltetrahydro-2H-pyran-2-yl]-3-fluorobenzoic acid]
200		370			Cc1cc(C(=O)O)ccc1[C@H]1C[C@H](NC(=O)C2(c3ccc4c(c3)OC(F)(F)O4)CC2)C[C@@H](c2ccccc2)O1 (single isomer, unassigned) [Example 65]
330	91	410	90		Cc1cc(C(=O)O)cc([C@H]2C[C@@H](NC(=O)C3(c4ccc5c(c4)OC(F)(F)O5)CC3)C[C@@H](c3ccccc3)O2)c1 (racemic) [Example 73, rac-3-[(2R,4S,6S)-4-({[1-(2,2-difluoro-1,3-benzodioxol-5-yl)cyclopropyl]carbonyl}amino)-6-phenyltetrahydro-2H-pyran-2-yl]-5-methylbenzoic acid]
	84			100	Cc1cc(C(=O)O)ccc1[C@H]1C[C@H](NC(=O)C2(c3ccc4c(c3)OC(F)(F)O4)CC2)C[C@@H](c2ccccc2)O1 (racemic) [Example 65, rac-4-[(2R,4R,6S)-4-({[1-(2,2-difluoro-1,3-benzodioxol-5-yl)cyclopropyl]carbonyl}amino)-6-phenyltetrahydro-2H-pyran-2-yl]-3-methylbenzoic acid]
		2410	54		COc1ccc([C@H]2C[C@@H](NC(=O)C3(c4ccc5c(c4)OC(F)(F)O5)CC3)C[C@@H](c3ccc(C(=O)O)cc3)O2)cc1 (single isomer, unassigned) [Example 67]
		320	79		COc1ccc([C@@H]2C[C@H](NC(=O)C3(c4ccc5c(c4)OC(F)(F)O5)CC3)C[C@H](c3ccc(C(=O)O)cc3)O2)cc1 (single isomer, unassigned) [Example 66]
		860	105		COC(=O)c1ccc([C@H]2C[C@@H](NC(=O)C3(c4ccc5c(c4)OC(F)(F)O5)CC3)C[C@@H](c3ccccc3)O2)c(F)c1 (racemic) [Example 63, methyl rac-4-[(2R,4S,6S)-4-({[1-(2,2-difluoro-1,3-benzodioxol-5-yl)cyclopropyl]carbonyl}amino)-6-phenyltetrahydro-2H-pyran-2-yl]-3-fluorobenzoate]
		240	89		COc1cccc([C@@H]2C[C@H](NC(=O)C3(c4ccc5c(c4)OC(F)(F)O5)CC3)C[C@H](c3cccc(C(=O)O)c3)O2)c1 (single isomer, unassigned) [Example 74]

Second part, the molecule before the results:

Compound	EC50 (F508del/F508del CFTR) [nM]	Maximum % activity (F508del/F508del CFTR) [%]	EC50 (F508delCFTR) [nM]	Maximum % activity (F508delCFTR) [%]	Maximum % activity (F508delCFTR; 3 µM) [%]
O=C(O)c1ccc([C@H]2C[C@@H](NC(=O)C3(c4ccc5c(c4)OC(F)(F)O5)CC3)C[C@@H](c3ccccc3)O2)cc1 (single isomer, unassigned) [Example 53]	260	73	300	81	
O=C(O)c1cccc([C@H]2C[C@@H](NC(=O)C3(c4ccc5c(c4)OC(F)(F)O5)CC3)C[C@@H](c3ccccc3)O2)c1 (racemic) [Example 24, rac-3-[(2R,4S,6S)-4-({[1-(2,2-difluoro-1,3-benzodioxol-5-yl)cyclopropyl]carbonyl}amino)-6-phenyltetrahydro-2H-pyran-2-yl]benzoic acid]	340	76	500	109	
O=C(O)c1ccc([C@H]2C[C@@H](NC(=O)C3(c4ccc5c(c4)OC(F)(F)O5)CC3)CCO2)cc1 [Example 31, 4-[(2R,4S)-4-({[1-(2,2-difluoro-1,3-benzodioxol-5-yl)cyclopropyl]carbonyl}amino)tetrahydro-2H-pyran-2-yl]benzoic acid]	1030	65	770	102	
O=C(O)c1cccc([C@H]2C[C@@H](NC(=O)C3(c4ccc5c(c4)OC(F)(F)O5)CC3)CCO2)c1 [Example 19, 3-[(2R,4S)-4-({[1-(2,2-difluoro-1,3-benzodioxol-5-yl)cyclopropyl]carbonyl}amino)tetrahydro-2H-pyran-2-yl]benzoic acid]	1030	87	2230	100	
O=C(O)c1cccc([C@H]2C[C@@H](NC(=O)C3(c4ccc5c(c4)OC(F)(F)O5)CC3)C[C@@H](c3ccccc3)O2)c1 [Example 27, 3-[(2R,4S,6S)-4-({[1-(2,2-difluoro-1,3-benzodioxol-5-yl)cyclopropyl]carbonyl}amino)-6-phenyltetrahydro-2H-pyran-2-yl]benzoic acid]	100	94	280	109	
O=C(O)c1ccc([C@H]2C[C@@H](NC(=O)C3(c4ccc5c(c4)OC(F)(F)O5)CC3)CCO2)cc1 (racemic) [Example 14, rac-4-[(2R,4S)-4-({[1-(2,2-difluoro-1,3-benzodioxol-5-yl)cyclopropyl]carbonyl}amino)tetrahydro-2H-pyran-2-yl]benzoic acid]	1340	73	2860	113	
O=C(O)c1ccc([C@H]2C[C@H](NC(=O)C3(c4ccc5c(c4)OC(F)(F)O5)CC3)C[C@@H](c3ccccc3)O2)cc1 (racemic) [Example 49, rac-4-[(2R,4R,6S)-4-({[1-(2,2-difluoro-1,3-benzodioxol-5-yl)cyclopropyl]carbonyl}amino)-6-phenyltetrahydro-2H-pyran-2-yl]benzoic acid]			3080	77	
O=C(O)c1cccc([C@@H]2C[C@H](NC(=O)C3(c4ccc5c(c4)OC(F)(F)O5)CC3)CCO2)c1 [Example 18, 3-[(2S,4R)-4-({[1-(2,2-difluoro-1,3-benzodioxol-5-yl)cyclopropyl]carbonyl}amino)tetrahydro-2H-pyran-2-yl]benzoic acid]			≥ 20000	3	
COC(=O)c1ccc([C@@H]2C[C@H](NC(=O)C3(c4ccc5c(c4)OC(F)(F)O5)CC3)CCO2)c(C)c1 (single isomer, unassigned) [Example 40]			2100	60	
O=C(O)c1cccc([C@@H]2C[C@H](NC(=O)C3(c4ccc5c(c4)OC(F)(F)O5)CC3)C[C@H](c3ccccc3)O2)c1 [Example 26, 3-[(2S,4R,6R)-4-({[1-(2,2-difluoro-1,3-benzodioxol-5-yl)cyclopropyl]carbonyl}amino)-6-phenyltetrahydro-2H-pyran-2-yl]benzoic acid]			≥ 20000	16	
